Here are results for 4 compounds from ChEMBL document CHEMBL1133436 (Bioorg Med Chem Lett, 2000).

Molecules are shown by their SMILES.

Experiment [1] has as its target T1, Alpha-2B adrenergic receptor (Homo sapiens, UniProt P18089).
T1 sequence (P18089 whole entry): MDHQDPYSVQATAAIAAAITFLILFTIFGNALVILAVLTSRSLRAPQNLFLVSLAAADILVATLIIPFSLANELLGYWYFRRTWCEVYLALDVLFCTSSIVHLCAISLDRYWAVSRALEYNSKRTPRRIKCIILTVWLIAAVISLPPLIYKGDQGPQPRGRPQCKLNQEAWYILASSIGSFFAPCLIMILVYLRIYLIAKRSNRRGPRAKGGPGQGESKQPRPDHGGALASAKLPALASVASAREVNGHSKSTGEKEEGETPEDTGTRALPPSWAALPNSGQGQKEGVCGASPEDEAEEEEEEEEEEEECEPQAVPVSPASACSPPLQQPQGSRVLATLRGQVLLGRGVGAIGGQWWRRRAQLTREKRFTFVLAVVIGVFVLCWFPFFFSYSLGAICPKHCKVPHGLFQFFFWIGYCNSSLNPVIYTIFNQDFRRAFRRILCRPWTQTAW
The experiment is described as follows: biochemical. Format: cell-based, CHO.

A further experiment is filed under the species Homo sapiens. The experiment in a line: Selectivity for alpha-2a to that of alpha2b determined by their binding affinity ratios.
The target in experiment [2] is T2, Alpha-2A adrenergic receptor (Homo sapiens, UniProt P08913).
T2 sequence (P08913 whole entry): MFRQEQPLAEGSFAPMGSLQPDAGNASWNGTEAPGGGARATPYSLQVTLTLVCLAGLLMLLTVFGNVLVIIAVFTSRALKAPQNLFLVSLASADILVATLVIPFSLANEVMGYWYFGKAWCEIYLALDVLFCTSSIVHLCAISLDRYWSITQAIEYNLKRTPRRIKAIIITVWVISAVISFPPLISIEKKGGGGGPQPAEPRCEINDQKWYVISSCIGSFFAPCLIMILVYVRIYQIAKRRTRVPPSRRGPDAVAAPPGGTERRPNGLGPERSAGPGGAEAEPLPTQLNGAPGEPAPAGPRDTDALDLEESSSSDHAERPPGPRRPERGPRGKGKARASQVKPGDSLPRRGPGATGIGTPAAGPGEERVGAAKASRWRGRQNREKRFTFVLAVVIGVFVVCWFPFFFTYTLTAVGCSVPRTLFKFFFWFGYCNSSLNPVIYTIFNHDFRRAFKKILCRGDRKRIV
The experiment is described as follows: Binding affinity against human Alpha-2A adrenergic receptor expressed stably in CHO cells using [3H]rauwolscine as radioligand. Format: cell-based.

Usually Ki stands for a dissociation constant, usually derived from enzyme kinetics or from competition with a known ligand.

Take `O=C(NCCCCCCCCCCCCNC(=O)[C@@H]1[C@H]2C[C@H]3c4[nH]c5ccccc5c4CCN3C[C@@H]2CC[C@@H]1O)[C@@H]1[C@H]2C[C@H]3c4[nH]c5ccccc5c4CCN3C[C@@H]2CC[C@@H]1O`: the Ki worked out at 18.5 nM in experiment [1] and 1.18 nM in experiment [2]. Also, the Selectivity in the experiment filed under Homo sapiens amounted to 15.7.

As to `O=C(NCCCCCCCCCNC(=O)[C@@H]1[C@H]2C[C@H]3c4[nH]c5ccccc5c4CCN3C[C@@H]2CC[C@@H]1O)[C@@H]1[C@H]2C[C@H]3c4[nH]c5ccccc5c4CCN3C[C@@H]2CC[C@@H]1O`, the Ki in experiment [1] is 44.7 nM; in experiment [2], 1.25 nM. Also, the Selectivity in the experiment listed under Homo sapiens is 35.8.

Regarding `O=C(NCCCCCCCCNC(=O)[C@@H]1[C@H]2C[C@H]3c4[nH]c5ccccc5c4CCN3C[C@@H]2CC[C@@H]1O)[C@@H]1[C@H]2C[C@H]3c4[nH]c5ccccc5c4CCN3C[C@@H]2CC[C@@H]1O`, the Selectivity in the experiment filed under Homo sapiens is 60.5.

For the compound `O=C(NCCCCCCCCCCNC(=O)[C@@H]1[C@H]2C[C@H]3c4[nH]c5ccccc5c4CCN3C[C@@H]2CC[C@@H]1O)[C@@H]1[C@H]2C[C@H]3c4[nH]c5ccccc5c4CCN3C[C@@H]2CC[C@@H]1O`, the Selectivity in the experiment filed under Homo sapiens stood at 47.7.
